Source: PMC4457826 (PLoS Pathogens, 2015)
No end group written: not given here.

Experiments:
USP7-CTD = target: T1, USP7-CTD (Homo sapiens, UniProt Q93009); assay: GST pull-down, USP7-CTD; type: binding
T1 construct: USP7-CTD (535–1102); His tag (inferred from nickel-NTA purification; vector p15TV-L); made in house; host or cells: E. coli BL21(DE3)mgk
Procedure: (§1) Fragments representing USP7-CTD Ubl domains were prepared using ligation independent cloning with In-Fusion (Clontech) in p15TV-L. The boundaries of the Ubl domain constructs are Ubl12 (535–776), Ubl123 (535–889), Ubl345 (776–1102), Ubl45 (886–1102) and USP7-CTD (535–1102). Plasmids expressing USP7-NTD, USP7, and myc-USP7 WT (pCANmycUSP7) were described previously. USP7 mutants E759A, D762A, D764A and D762A/D764A in Ubl123 were synthesized (Genscript) and inserted into the pET15b plasmid. USP7 mutants E759A, D762A, D764A, D762A/D764A and D762R/D764R in USP7-CTD were prepared by ACGT Corporation. The D762R/D764R mutant was then sub-cloned into wild-type pCANmycUSP7 for co-IP assays. The mammalian ICP0 expression construct pCI-110 ICP0 was obtained from Roger Everett.
(§2) The ICP0, GMPS and UHRF1 WT and mutant peptides were cloned into pGEX-2TK and expressed in E. coli BL21(DE3). GST-ICP0 594–775 was obtained from Roger Everett. The GST-ICP0 or GST-GMPS or GST-UHRF1 or GST-ICP0 594–775 cell pellets from 500 ml of LB broth were re-suspended with PBS and lysed using sonication. The cleared lysates were applied to 500 μl of equilibrated glutathione-sepharose beads and incubated with rocking for 60 min at 4°C. Unbound proteins were removed by washing with PBS. Bound proteins were eluted with 50 mM Tris pH 8.0 and 100 mM NaCL containing 30 mM reduced glutathione. Equal amounts (250 μg) of the various USP7 proteins were incubated with 250 μg of the GST-ICP0 or GST-GMPS or GST-UHRF1 or GST-ICP0 594–775 peptides in 50 mM Tris pH 8.0, 100 mM NaCl, 5 mM DTT, 5% glycerol, 0.1 mM Benzamidine and 0.05 mM PMSF, applied to equilibrated glutathione-sepharose beads and incubated overnight with rocking at 4°C. After extensive washing, bound proteins were eluted with 50 mM Tris pH 8.0 and 100 mM NaCl containing 30 mM reduced glutathione.

USP7 Ubl12 = target: T2, USP7 Ubl12 (Homo sapiens, UniProt Q93009); assay: GST pull-down, Ubl12; type: binding; conditions: USP7 domain mapping, Fig 1B/1E, listed as GST-ICP0 615–629
T2 construct: Ubl12 (535–776); His tag (inferred from nickel-NTA purification; vector p15TV-L); made in house; host or cells: E. coli BL21(DE3)mgk
Procedure: as §1
(§3) The ICP0, GMPS and UHRF1 WT and mutant peptides were cloned into pGEX-2TK and expressed in E. coli BL21(DE3). GST-ICP0 594–775 was obtained from Roger Everett. The GST-ICP0 or GST-GMPS or GST-UHRF1 or GST-ICP0 594–775 cell pellets from 500 ml of LB broth were re-suspended with PBS and lysed using sonication. The cleared lysates were applied to 500 μl of equilibrated glutathione-sepharose beads and incubated with rocking for 60 min at 4°C. Unbound proteins were removed by washing with PBS. Bound proteins were eluted with 50 mM Tris pH 8.0 and 100 mM NaCL containing 30 mM reduced glutathione. […]

[1] = system: USP7-CTD mutant D762A/D764A; assay: GST pull-down, USP7-CTD D762A/D764A; type: binding, human
Procedure: as §1, §2

Ubl123 mutant D764A = target: T3, Ubl123 mutant D764A (Homo sapiens, UniProt Q93009, D764A); assay: GST pull-down, Ubl123 D764A; type: binding; conditions: Fig 3F
T3 construct: Ubl123 (535–889); (vector pET15b); made in house; host or cells: E. coli BL21(DE3)mgk
Procedure: as §1, §3

USP7-NTD = assay: GST pull-down, USP7-NTD; type: binding, human; conditions: USP7 domain mapping, Fig 1B/1E, listed as GST-ICP0 615–629
Source text: (§4) Next we determined which region of USP7-CTD interacted with the ICP0 615–629 peptide. FL-USP7, USP7-CTD as well as Ubl12, Ubl123, Ubl345 and Ubl45 (Fig 1B) were used as prey in GST pull-down assays using GST-ICP0 615–629. FL-USP7 and USP7-CTD were used as positive controls while GST alone and USP7-NTD were used as negative controls.
as §2

[2] = target: T4, Ubl123 mutant D762A/D764A (Homo sapiens, UniProt Q93009, D762A/D764A); assay: GST pull-down, Ubl123 D762A/D764A; type: binding; conditions: Fig 3F
T4 construct: Ubl123 (535–889); (vector pET15b); made in house; host or cells: E. coli BL21(DE3)mgk
Procedure: as §1, §3

USP7 Ubl123 = target: T5, USP7 Ubl123 (Homo sapiens, UniProt Q93009); assay: GST pull-down, Ubl123; type: binding; conditions: for Binding of mutant GST-ICP0 peptides to Ubl123: mutations within ICP0 615–629, Fig 3D
T5 construct: Ubl123 (535–889); His tag (inferred from nickel-NTA purification; vector p15TV-L); made in house; host or cells: E. coli BL21(DE3)mgk
Procedure: as §1, §2

USP7-CTD mutant D764A = assay: GST pull-down, USP7-CTD D764A; type: binding, human
Procedure: as §1, §3

USP7 Ubl345 = assay: GST pull-down, Ubl345; type: binding, human; conditions: USP7 domain mapping, Fig 1B/1E, listed as GST-ICP0 615–629
Procedure: as §1, §3

USP7-CTD mutant E759A = assay: GST pull-down, USP7-CTD E759A; type: binding, human
Procedure: as §1, §3

FL-USP7 = assay: GST pull-down, USP7-FL; type: binding, human
Procedure: The USP7 binding region is found within ICP0 residues 594–633 and mutagenesis studies have shown that K620 is essential for the interaction. In order to facilitate crystallization and structure determination, we set out to identify a shorter peptide that is capable of binding to USP7. To this end, a series of overlapping GST-ICP0 fusions (591–605, 595–609, 599–613, 603–617, 607–621, 611–625, 615–629, 619–633) were prepared (see Fig 1A for sequence details) and used in GST pull-down assays. […] Overall, our GST pull-down assays identified ICP0 residues between 619 and 629 as important mediators of USP7 binding in agreement with a previous study.
as §4, §2

USP7-CTD mutant D762A = assay: GST pull-down, USP7-CTD D762A; type: binding, human
Procedure: as §1, §2

USP7 Ubl45 = assay: GST pull-down, Ubl45; type: binding, human; conditions: USP7 domain mapping, Fig 1B/1E, listed as GST-ICP0 615–629
Procedure: as §1, §3

Ubl123 mutant D762A = target: T6, Ubl123 mutant D762A (Homo sapiens, UniProt Q93009, D762A); assay: GST pull-down, Ubl123 D762A; type: binding; conditions: Fig 3F
T6 construct: Ubl123 (535–889); (vector pET15b); made in house; host or cells: E. coli BL21(DE3)mgk
Procedure: as §1, §3

Ubl123 mutant E759A = target: T7, Ubl123 mutant E759A (Homo sapiens, UniProt Q93009, E759A); assay: GST pull-down, Ubl123 E759A; type: binding; conditions: Fig 3F
T7 construct: Ubl123 (535–889); (vector pET15b); made in house; host or cells: E. coli BL21(DE3)mgk
Procedure: as §1, §3

[3] = GST pull-down, USP7 domain mapping, Fig 1B/1E, listed as GST-ICP0 615–629

T5 sequence (Q93009 535-889): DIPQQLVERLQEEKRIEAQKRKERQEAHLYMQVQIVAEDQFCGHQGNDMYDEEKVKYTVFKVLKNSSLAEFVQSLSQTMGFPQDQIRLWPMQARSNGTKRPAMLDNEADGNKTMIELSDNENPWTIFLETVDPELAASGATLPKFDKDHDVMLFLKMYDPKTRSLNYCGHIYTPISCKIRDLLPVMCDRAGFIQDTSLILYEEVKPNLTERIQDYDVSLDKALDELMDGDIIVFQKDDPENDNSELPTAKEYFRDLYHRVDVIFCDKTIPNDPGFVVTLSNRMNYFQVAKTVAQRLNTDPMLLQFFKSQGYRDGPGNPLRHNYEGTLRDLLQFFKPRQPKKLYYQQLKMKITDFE
T1 sequence (Q93009 535-1102): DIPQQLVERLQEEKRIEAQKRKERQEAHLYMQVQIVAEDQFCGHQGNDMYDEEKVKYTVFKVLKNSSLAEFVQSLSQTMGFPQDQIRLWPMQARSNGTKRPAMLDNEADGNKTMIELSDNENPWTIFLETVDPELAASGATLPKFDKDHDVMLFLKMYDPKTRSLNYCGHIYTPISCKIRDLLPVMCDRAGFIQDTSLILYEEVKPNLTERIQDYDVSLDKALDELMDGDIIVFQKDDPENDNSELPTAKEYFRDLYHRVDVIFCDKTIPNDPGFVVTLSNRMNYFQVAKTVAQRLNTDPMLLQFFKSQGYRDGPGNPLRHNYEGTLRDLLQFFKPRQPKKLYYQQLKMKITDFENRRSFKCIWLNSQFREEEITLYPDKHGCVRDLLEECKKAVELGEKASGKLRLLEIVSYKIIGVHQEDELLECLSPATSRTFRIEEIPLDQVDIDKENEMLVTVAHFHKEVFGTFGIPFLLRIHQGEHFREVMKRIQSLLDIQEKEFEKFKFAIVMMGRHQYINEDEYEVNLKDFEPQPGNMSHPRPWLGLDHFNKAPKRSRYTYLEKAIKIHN
T3 sequence (Q93009 535-889 D764A): as the sequence (Q93009 535-889) above, with D230A counted along it
T7 sequence (Q93009 535-889 E759A): as the sequence (Q93009 535-889) above, with E225A counted along it
T6 sequence (Q93009 535-889 D762A): as the sequence (Q93009 535-889) above, with D228A counted along it
T4 sequence (Q93009 535-889 D762A/D764A): as the sequence (Q93009 535-889) above, with D228A, D230A counted along it
T2 sequence (Q93009 535-776): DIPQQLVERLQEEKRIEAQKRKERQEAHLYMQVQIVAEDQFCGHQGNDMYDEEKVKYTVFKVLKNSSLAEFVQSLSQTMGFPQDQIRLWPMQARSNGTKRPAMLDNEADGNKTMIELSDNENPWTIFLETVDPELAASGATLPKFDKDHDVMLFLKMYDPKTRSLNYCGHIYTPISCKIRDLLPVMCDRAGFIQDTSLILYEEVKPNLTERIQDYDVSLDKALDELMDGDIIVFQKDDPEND

Row | Substance | Interaction with USP7-CTD (overlapping GST-ICP0 peptides) (USP7-CTD; GST fusions 250 μg + USP7-CTD 250 μg, 50 mM Tris pH 8.0, 100 mM NaCl, 5 mM DTT, 5% glycerol, overnight 4°C, Coomassie stained gel, Fig 1A/1D, symbols not defined) | Interaction with ICP0 615-629: USP7-CTD (USP7-CTD; [3]) | Interaction with ICP0 615-629: Ubl12 (USP7 Ubl12) | Binding to USP7-CTD mutant D762A/D764A [1] | Binding to Ubl123 mutant D764A (Ubl123 mutant D764A) | Interaction with ICP0 615-629: USP7-NTD (USP7-NTD) | Binding to Ubl123 mutant D762A/D764A [2] | Interaction with ICP0 615-629: Ubl123 (USP7 Ubl123; USP7 domain mapping, Fig 1B/1E, listed as GST-ICP0 615–629) | Binding to USP7-CTD mutant D764A (USP7-CTD mutant D764A) | Interaction with ICP0 615-629: Ubl345 (USP7 Ubl345) | Binding to USP7-CTD mutant E759A (USP7-CTD mutant E759A) | Interaction with USP7-FL (overlapping GST-ICP0 peptides) (FL-USP7; GST fusions 250 μg + USP7 250 μg, 50 mM Tris pH 8.0, 100 mM NaCl, 5 mM DTT, 5% glycerol, overnight 4°C, Coomassie stained gel, Fig 1A/1C, symbols not defined) | Interaction with ICP0 615-629: USP7-FL (FL-USP7; [3]) | Binding to USP7-CTD mutant D762A (USP7-CTD mutant D762A) | Interaction with ICP0 615-629: Ubl45 (USP7 Ubl45) | Binding to Ubl123 mutant D762A (Ubl123 mutant D762A) | Binding to Ubl123 mutant E759A (Ubl123 mutant E759A) | Binding of mutant GST-ICP0 peptides to Ubl123 (USP7 Ubl123)
1 | PRGPRKCARKTRHAE [ICP0 615–629, GST-ICP0 fusion of ICP0 residues 615–629] | strongest interaction | FL-USP7 as well as USP7-CTD but not USP7-NTD or GST alone interacted | interacted | Binding was abolished | Binding was abolished | not USP7-NTD | Binding was abolished | interacted | Binding was abolished | no interaction | Binding was abolished | strongest interaction | FL-USP7 as well as USP7-CTD but not USP7-NTD or GST alone interacted | Binding was abolished | no interaction | Binding was abolished | Binding was abolished | 
2 | R619A/K620A (PRGPAACARKTRHAE; also: GST fusion partner not in chain) |  |  |  |  |  |  |  |  |  |  |  |  |  |  |  |  |  | lacked detectable binding
3 | R623A/K624A (PRGPRKCAAATRHAE; also: GST fusion partner not in chain) |  |  |  |  |  |  |  |  |  |  |  |  |  |  |  |  |  | lacked detectable binding
